Columns and labels:
[1] = Cleavage assay in whole defibrinated rabbit blood; type: in vitro ADME
Method: (§1) Cleavage Assays for Pro-Drugs of 18,21-dihydromacbecin
(§2) Assays to determine the rate of cleavage of the pro-drugs into their parent compounds were performed as described herein. These were carried out in plasma, blood or buffer. Mixed mouse, human or mixed rat plasma containing EDTA or heparin as an anti-coagulant was used or whole defibrinated rabbit blood (mouse and rat plasma and rabbit blood were obtained from Harlan-Sera Labs, human plasma was obtained from Biopredic International).
If using whole blood such as defibrinated whole rabbit blood the following protocol was used: The blood was thawed at 37° C. in a water bath. Blood was dispensed into individual 20 mL tubes for each test compound allowing 0.5 mL for each time point to be analysed. A tube containing blood was also included as a control. These tubes were incubated for 15 minutes at 37° C.
Each test compound was reconstituted in DMSO or other appropriate solvent. The blood was removed from the water bath and the compound was added to give a final concentration of 0.001-0.010 mg/mL keeping the final concentration of solvent below 5%. In the case of the control, an equivalent volume of DMSO or other solvent was added. Immediately after the addition of compound a 0.4 mL sample was taken from the tube, transferred to a 2 mL microfuge tube. The plasma was promptly returned to the 37° C. water bath. 0.4 mL samples were taken at regular time points (e.g. after 30 min and then hourly) and were immediately frozen at −80° C. To each 0.4 mL sample in its 2 mL microfuge tube was added 1.5 mL of 0.1 M potassium dihydrogen phosphate, this was inverted to mix. A stable internal standard (IS) in acetonitrile was added at 0.002 mg/mL. This was agitated for 5 min on an IKA shaker at 1500 rpm. Centrifugation at 5000 rpm for 5 min lead to a dense pellet made up of red blood cells and precipitated protein, and a pink/red supernatant. An Oasis HLB (333/60 mg) cartridge was equilibrated with 2 mL of methanol followed by 2 mL of water. […]
The HPLC conditions were: 10% B for 1 min followed by a linear gradient to 100% B over a period of 7 min and an isocratic period of 2 min at 100% B. The analytes were detected by UV absorbance at 255 nm and mass spectrometry using a Bruker Daltonics Esquire 3000+ mass spectrometer coupled to the HPLC. The analytes were quantified based on the extracted ion chromatogram. To ensure a reliable quantification, the linear response of the mass spectrometer was checked for the concentration range of interest.
Each compound was assessed for cleavage to 18,21-dihydromacbecin as follows. […] The samples were applied to a cartridge described above and analysed immediately using Analysis Method C.

[2] = Cleavage assay in phosphate buffer; type: physicochemical; details: cleavage to 18,21-dihydromacbecin
Method: as §1, §2
The stability of the test compounds in phosphate-buffered saline (PBS) of specific pH over the course of each experiment was also analysed using the same methodology.
After the final time point was sampled, the samples were extracted as follows. For each time point sample an Oasis MCX (3 cc/60 mg) or Oasis HLB (333/60 mg) cartridge was conditioned and equilibrated with 2 mL methanol followed by 2 mL water. 1.5 mL water and an internal standard (IS) at 0.002 mg/mL were added to each 0.4 mL plasma sample. This was loaded to the cartridge. The cartridge was washed with 2 mL water and the analytes were eluted in 2 ml MeOH. This extract was analysed without further treatment by LC/MS using the conditions described below.
The cleavage of compounds 1-3 was also measured in phosphate buffer as described in the General Methods—Cleavage Assay above at pH 7.2 and pH 7.4 and T1/2 values calculated as indicated in Table 5 below.

PRXF DU-145 xenografts = experiment: In vivo evaluation of antitumor efficacy in PRXF DU-145 xenografts; set-up: species or system nude mice; details: 60 mg/kg/d i.p. on Days 0-4, 7-11, 14-18, 21, 24, 25, 28 and 29; recorded on day 31; p<0.001 vs vehicle control
[3] = biological target: terminal deoxynucleotidyl transferase (Homo sapiens, UniProt P04053); details: Ono et al., 1982; cited from earlier work
UXF 1138L = experiment: Monolayer proliferation assay (modified propidium iodide); type: cell-based, human; details: 4 days exposure
Description: (§3) In vitro evaluation of compounds for anticancer activity in a panel of 12 human tumour cell lines in a monolayer proliferation assay may be carried out at the Oncotest Testing Facility, Institute for Experimental Oncology, Oncotest GmbH, Freiburg.
(§4) The Oncotest cell lines were established from human tumor xenografts as described by Roth et al., (1999). The origin of the donor xenografts is described by Fiebig et al., (1999). Other cell lines were either obtained from the NCI (H460, SF-268, OVCAR-3, DU145, MDA-MB-231, MDA-MB-468) or purchased from DSMZ, Braunschweig, Germany (LNCAP).
(§5) All cell lines, unless otherwise specified, were grown at 37° C. in a humidified atmosphere (95% air, 5% CO2) in a ‘ready-mix’ medium containing RPMI 1640 medium, 10% fetal calf serum, and 0.1 mg/mL gentamicin (PAA, Cölbe, Germany).
(§6) A modified propidium iodide assay was used to assess the effects of the test compound(s) on the growth of twelve human tumour cell lines (Dengler et al., (1995)).
(§7) Briefly, cells were harvested from exponential phase cultures by trypsinization, counted and plated in 96 well flat-bottomed microtitre plates at a cell density dependent on the cell line (5-10.000 viable cells/well). After 24 h recovery to allow the cells to resume exponential growth, 0.010 mL of culture medium (6 control wells per plate) or culture medium containing macbecin was added to the wells. Each concentration was plated in triplicate. Compounds were applied in two concentrations (0.001 mM and 0.01 mM). Following 4 days of continuous exposure, cell culture medium with or without test compound is replaced by 0.2 mL of an aqueous propidium iodide (PI) solution (7 mg/L). To measure the proportion of living cells, cells are permeabilized by freezing the plates. After thawing the plates, fluorescence was measured using the Cytofluor 4000 microplate reader (excitation 530 nm, emission 620 nm), giving a direct relationship to the total number of viable cells.
(§8) Growth inhibition is expressed as treated/control×100 (% T/C).
(§9) In vitro evaluation of macbecin for anticancer activity in a panel of 12 human tumor cell lines in a monolayer proliferation assay was carried out as described in the general methods using a modified propidium iodide assay.

MDA-MB-468 = experiment: as above; type: cell-based, human; details: MDA468, 4 days exposure
Description: as §3, §4, §5, §6, §7, §8, §9

DU145 = experiment: as above; type: cell-based, human; details: 4 days exposure
Description: as §3, §4, §5, §6, §7, §8, §9

LNCAP = experiment: as above; type: cell-based, human; details: 4 days exposure
Description: as §3, §4, §5, §6, §7, §8, §9

NCI-H460 = experiment: as above; type: cell-based, human; details: 4 days exposure
Description: as §3, §4, §5, §6, §7, §8, §9

A498 = experiment: as above; type: cell-based, human; details: 4 days exposure
Description: as §3, §4, §5, §6, §7, §8, §9

OVCAR-3 = experiment: as above; type: cell-based, human; details: OVCAR3, 4 days exposure
Description: as §3, §4, §5, §6, §7, §8, §9

MCF-7 = experiment: as above; type: cell-based, human; details: MCF7, 4 days exposure
Description: as §3, §4, §5, §6, §7, §8, §9

MEXF 394NL = experiment: as above; type: cell-based, human; details: 4 days exposure
Description: as §3, §4, §5, §6, §7, §8, §9

SF-268 = experiment: as above; type: cell-based, human; details: SF268, 4 days exposure
Description: as §3, §4, §5, §6, §7, §8, §9

GXF 251L = experiment: as above; type: cell-based, human; details: 4 days exposure
Description: as §3, §4, §5, §6, §7, §8, §9

MDA-MB-231 = experiment: as above; type: cell-based, human; details: MDA231, 4 days exposure
Description: as §3, §4, §5, §6, §7, §8, §9

Reverse transcriptase = details: Ono et al., 1982; cited from earlier work
[4] = Rabbit blood pH 7.3 (37° C.) Run 1
[5] = Phosphate Buffer pH 7.2 (37° C.)
[6] = Phosphate Buffer pH 7.4 (37° C.)

terminal deoxynucleotidyl transferase, sequence (P04053 whole entry, species assumed): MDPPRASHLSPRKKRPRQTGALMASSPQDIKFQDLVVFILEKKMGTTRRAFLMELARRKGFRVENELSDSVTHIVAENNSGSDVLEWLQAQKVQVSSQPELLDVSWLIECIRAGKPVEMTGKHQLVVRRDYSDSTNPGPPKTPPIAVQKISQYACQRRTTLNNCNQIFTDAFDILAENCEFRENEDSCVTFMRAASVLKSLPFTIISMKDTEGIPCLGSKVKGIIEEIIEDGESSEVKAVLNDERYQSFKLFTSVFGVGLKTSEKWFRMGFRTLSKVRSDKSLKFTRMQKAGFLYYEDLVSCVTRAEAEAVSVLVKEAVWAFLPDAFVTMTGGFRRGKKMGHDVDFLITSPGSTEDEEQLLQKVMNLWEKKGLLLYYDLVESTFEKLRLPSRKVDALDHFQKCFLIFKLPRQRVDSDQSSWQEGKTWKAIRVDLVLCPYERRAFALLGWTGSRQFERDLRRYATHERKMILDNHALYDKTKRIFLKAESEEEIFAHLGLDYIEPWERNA

18-O—(N,N′-diethylethylenediamine-N′-carbamoyl)-18,21-dihydromacbecin Hydrochloride Salt [Compound 3]
t1/2 [1, 4]: 160 min | t1/2 [2, 5]: 276 min | t1/2 [2, 6]: 160 min

18-O—(N,N′-dimethylethylenediamine-N′-carbamoyl)-18,21-dihydromacbecin Hydrochloride Salt [Compound 1]
t1/2 [1, 4]: 45 min | t1/2 ([1]; Rabbit blood pH 7.3 (37° C.) Run 2): 49 min | t1/2 [2, 5]: 64 min | t1/2 [2, 6]: 49 min | minimum T/C value (PRXF DU-145 xenografts): 24.3%

CO[C@H]1[C@@H](OC)C[C@H](C)[C@@H](OC)C2=CC(=O)C=C(NC(=O)/C(C)=C/C=C\[C@@H](C)[C@@H](OC(N)=O)/C(C)=C/[C@@H]1C)C2=O [macbecin]
terminal deoxynucleotidyl transferase activity inhibition [3]: not inhibited | Test/Control (%) at drug concentration (UXF 1138L; 1 × 10−5 M): 19% | Test/Control (%) at drug concentration (UXF 1138L; 1 × 10−6 M): 75.5% | Test/Control (%) at drug concentration (MDA-MB-468; 1 × 10−5 M): 4% | Test/Control (%) at drug concentration (MDA-MB-468; 1 × 10−6 M): 14.5% | Test/Control (%) at drug concentration (DU145; 1 × 10−5 M): 14.5% | Test/Control (%) at drug concentration (DU145; 1 × 10−6 M): 42% | Test/Control (%) at drug concentration (LNCAP; 1 × 10−5 M): 27.5% | Test/Control (%) at drug concentration (LNCAP; 1 × 10−6 M): 43.5% | Test/Control (%) at drug concentration (NCI-H460; 1 × 10−5 M): 21.5% | Test/Control (%) at drug concentration (NCI-H460; 1 × 10−6 M): 110% | Test/Control (%) at drug concentration (A498; 1 × 10−5 M): 82% | Test/Control (%) at drug concentration (A498; 1 × 10−6 M): 107.5% | Test/Control (%) at drug concentration (OVCAR-3; 1 × 10−5 M): 37.5% | Test/Control (%) at drug concentration (OVCAR-3; 1 × 10−6 M): 71% | Test/Control (%) at drug concentration (MCF-7; 1 × 10−5 M): 12% | Test/Control (%) at drug concentration (MCF-7; 1 × 10−6 M): 35.5% | Test/Control (%) at drug concentration (MEXF 394NL; 1 × 10−5 M): 17% | Test/Control (%) at drug concentration (MEXF 394NL; 1 × 10−6 M): 21% | Test/Control (%) at drug concentration (SF-268; 1 × 10−5 M): 20.5% | Test/Control (%) at drug concentration (SF-268; 1 × 10−6 M): 95.5% | Test/Control (%) at drug concentration (GXF 251L; 1 × 10−5 M): 37% | Test/Control (%) at drug concentration (GXF 251L; 1 × 10−6 M): 61% | Test/Control (%) at drug concentration (MDA-MB-231; 1 × 10−5 M): 34% | Test/Control (%) at drug concentration (MDA-MB-231; 1 × 10−6 M): 88% | Reverse transcriptase activity inhibition (Reverse transcriptase): not inhibited

CNCCNC(=O)Oc1cc2c(O)c(c1)C(OC)C(C)CC(OC)C(OC)C(C)C=C(C)C(OC(N)=O)C(C)C=CC=C(C)C(=O)N2.Cl (stereo not shown) [Compound 2, 18-O—(N-methylethylenediamine-N′-carbamoyl)-18,21-dihydromacbecin Hydrochloride Salt]
t1/2 [1, 4]: 153 min | t1/2 [2, 5]: 627 min | t1/2 [2, 6]: 127 min
